In the NIST ThermoML archive (doi:10.1016/j.fluid.2014.06.021):
Numbers after ± are expanded uncertainties.

Assay: activity coefficient (dimensionless); of the first substance listed, at infinite dilution; xn = mol fraction of the nth substance listed
Conditions: 101.33 kPa, Liquid, Chromatography, x1 = 0

Work on Cc1ccccc1C [1,2-dimethylbenzene] + C[n+]1ccn(CCCCS(=O)(=O)O)c1.O=S(=O)([N-]S(=O)(=O)C(F)(F)F)C(F)(F)F yielded an activity coefficient (323.15 K) of 4.39 ± 0.3, an activity coefficient (333.15 K) of 4.64 ± 0.32 and an activity coefficient (343.15 K) of 4.8 ± 0.3.
Cc1ccccc1C [1,2-dimethylbenzene] + C[n+]1ccn(CCCCS(=O)(=O)O)c1.O=S(=O)([O-])C(F)(F)F gave an activity coefficient (323.15 K) of 8.26 ± 0.56, an activity coefficient (333.15 K) of 8.21 ± 0.56 and an activity coefficient (343.15 K) of 7.97 ± 0.54.
For Cc1ccccc1C [1,2-dimethylbenzene] + C[n+]1ccn(CCCCS(=O)(=O)O)c1.O=S(=O)([O-])O, the activity coefficient (323.15 K) was 43.8 ± 3, the activity coefficient (333.15 K) was 41.3 ± 2.8 and the activity coefficient (343.15 K) was 40.8 ± 2.8.
With Cc1cccc(C)c1 [1,3-dimethylbenzene] + C[n+]1ccn(CCCCS(=O)(=O)O)c1.O=S(=O)([N-]S(=O)(=O)C(F)(F)F)C(F)(F)F the activity coefficient (323.15 K) was 5.19 ± 0.35, the activity coefficient (333.15 K) was 5.49 ± 0.37 and the activity coefficient (343.15 K) was 5.57 ± 0.38.
For Cc1cccc(C)c1 [1,3-dimethylbenzene] + C[n+]1ccn(CCCCS(=O)(=O)O)c1.O=S(=O)([O-])C(F)(F)F, the activity coefficient (323.15 K) was 10.4 ± 0.71, the activity coefficient (333.15 K) was 10.1 ± 0.7 and the activity coefficient (343.15 K) was 9.84 ± 0.67.
With Cc1cccc(C)c1 [1,3-dimethylbenzene] + C[n+]1ccn(CCCCS(=O)(=O)O)c1.O=S(=O)([O-])O the activity coefficient (323.15 K) was 62.8 ± 4.3, the activity coefficient (333.15 K) was 55.4 ± 3.8 and the activity coefficient (343.15 K) was 54.5 ± 3.7.
With Cc1ccc(C)cc1 [1,4-dimethylbenzene] + C[n+]1ccn(CCCCS(=O)(=O)O)c1.O=S(=O)([N-]S(=O)(=O)C(F)(F)F)C(F)(F)F the activity coefficient (323.15 K) was 5.11 ± 0.35, the activity coefficient (333.15 K) was 5.47 ± 0.37 and the activity coefficient (343.15 K) was 5.55 ± 0.38.
Molecule Cc1ccc(C)cc1 [1,4-dimethylbenzene] + C[n+]1ccn(CCCCS(=O)(=O)O)c1.O=S(=O)([O-])C(F)(F)F has an activity coefficient (323.15 K) of 10.1 ± 0.69, an activity coefficient (333.15 K) of 9.86 ± 0.67 and an activity coefficient (343.15 K) of 9.52 ± 0.65.
Cc1ccc(C)cc1 [1,4-dimethylbenzene] + C[n+]1ccn(CCCCS(=O)(=O)O)c1.O=S(=O)([O-])O showed an activity coefficient (323.15 K) of 56.6 ± 3.9, an activity coefficient (333.15 K) of 54.4 ± 3.7 and an activity coefficient (343.15 K) of 50.6 ± 3.5.
Molecule C#CCCCCC [1-heptyne] + C[n+]1ccn(CCCCS(=O)(=O)O)c1.O=S(=O)([O-])C(F)(F)F has an activity coefficient (323.15 K) of 25.9 ± 1.8, an activity coefficient (333.15 K) of 25.7 ± 1.8 and an activity coefficient (343.15 K) of 24.8 ± 1.7.
In the case of C#CCCCC [1-hexyne] + C[n+]1ccn(CCCCS(=O)(=O)O)c1.O=S(=O)([O-])C(F)(F)F, the activity coefficient (323.15 K) is reported as 15.5 ± 1.1, the activity coefficient (333.15 K) is reported as 14.4 ± 0.99 and the activity coefficient (343.15 K) is reported as 13.5 ± 0.92.
CCC[N+](=O)[O-] [1-nitropropane] + C[n+]1ccn(CCCCS(=O)(=O)O)c1.O=S(=O)([N-]S(=O)(=O)C(F)(F)F)C(F)(F)F gave an activity coefficient (323.15 K) of 1.17 ± 0.07, an activity coefficient (333.15 K) of 1.17 ± 0.07 and an activity coefficient (343.15 K) of 1.18 ± 0.08.
CCC[N+](=O)[O-] [1-nitropropane] + C[n+]1ccn(CCCCS(=O)(=O)O)c1.O=S(=O)([O-])C(F)(F)F showed an activity coefficient (323.15 K) of 1.84 ± 0.12, an activity coefficient (333.15 K) of 1.8 ± 0.12 and an activity coefficient (343.15 K) of 1.77 ± 0.12.
For CCC[N+](=O)[O-] [1-nitropropane] + C[n+]1ccn(CCCCS(=O)(=O)O)c1.O=S(=O)([O-])O, the activity coefficient (323.15 K) was 7.05 ± 0.48, the activity coefficient (333.15 K) was 6.92 ± 0.47 and the activity coefficient (343.15 K) was 6.82 ± 0.46.
Work on CC(C)CO [2-methyl-1-propanol] + C[n+]1ccn(CCCCS(=O)(=O)O)c1.O=S(=O)([N-]S(=O)(=O)C(F)(F)F)C(F)(F)F yielded an activity coefficient (333.15 K) of 0.22 ± 0.03 and an activity coefficient (343.15 K) of 0.26 ± 0.03.
With CC#N [acetonitrile] + C[n+]1ccn(CCCCS(=O)(=O)O)c1.O=S(=O)([N-]S(=O)(=O)C(F)(F)F)C(F)(F)F the activity coefficient (323.15 K) was 0.4 ± 0.1, the activity coefficient (333.15 K) was 0.42 ± 0.04 and the activity coefficient (343.15 K) was 0.45 ± 0.04.
With CC#N [acetonitrile] + C[n+]1ccn(CCCCS(=O)(=O)O)c1.O=S(=O)([O-])C(F)(F)F the activity coefficient (323.15 K) was 0.68 ± 0.05, the activity coefficient (333.15 K) was 0.67 ± 0.05 and the activity coefficient (343.15 K) was 0.68 ± 0.05.
Work on CC#N [acetonitrile] + C[n+]1ccn(CCCCS(=O)(=O)O)c1.O=S(=O)([O-])O yielded an activity coefficient (323.15 K) of 1.74 ± 0.12, an activity coefficient (333.15 K) of 1.73 ± 0.12 and an activity coefficient (343.15 K) of 1.73 ± 0.12.
Molecule c1ccccc1 [benzene] + C[n+]1ccn(CCCCS(=O)(=O)O)c1.O=S(=O)([N-]S(=O)(=O)C(F)(F)F)C(F)(F)F has an activity coefficient (323.15 K) of 1.95 ± 0.13, an activity coefficient (333.15 K) of 2.07 ± 0.14 and an activity coefficient (343.15 K) of 2.15 ± 0.15.
c1ccccc1 [benzene] + C[n+]1ccn(CCCCS(=O)(=O)O)c1.O=S(=O)([O-])C(F)(F)F showed an activity coefficient (323.15 K) of 3.36 ± 0.23, an activity coefficient (333.15 K) of 3.29 ± 0.22 and an activity coefficient (343.15 K) of 3.2 ± 0.2.
With c1ccccc1 [benzene] + C[n+]1ccn(CCCCS(=O)(=O)O)c1.O=S(=O)([O-])O the activity coefficient (323.15 K) was 14.4 ± 0.98, the activity coefficient (333.15 K) was 12.5 ± 0.85 and the activity coefficient (343.15 K) was 12.2 ± 0.83.
With CCCCO [butan-1-ol] + C[n+]1ccn(CCCCS(=O)(=O)O)c1.O=S(=O)([N-]S(=O)(=O)C(F)(F)F)C(F)(F)F the activity coefficient (333.15 K) was 0.19 ± 0.03 and the activity coefficient (343.15 K) was 0.23 ± 0.03.
CCC(C)=O [butanone] + C[n+]1ccn(CCCCS(=O)(=O)O)c1.O=S(=O)([N-]S(=O)(=O)C(F)(F)F)C(F)(F)F gave an activity coefficient (323.15 K) of 0.24 ± 0.03, an activity coefficient (333.15 K) of 0.27 ± 0.03 and an activity coefficient (343.15 K) of 0.3 ± 0.1.
CCC(C)=O [butanone] + C[n+]1ccn(CCCCS(=O)(=O)O)c1.O=S(=O)([O-])C(F)(F)F gave an activity coefficient (323.15 K) of 1.06 ± 0.07, an activity coefficient (333.15 K) of 1 ± 0.06 and an activity coefficient (343.15 K) of 0.96 ± 0.06.
